# Results: patent US20260062422A1 (Halda Therapeutics OpCo, Inc., priority 2022, published 2026)
# Legend:
# [1] = molecular target: T1, BRD4-BD1 (Homo sapiens, UniProt O60885); experiment: bromoKdELECT assay for binding affinity to BRD4-BD1; conditions: Table 6
# T1 construct: made in house; host or cells: T7 phage grown in an E. coli host derived from BL21
# Procedure: Compounds were tested using a bromoKdELECT assay. T7 phage strains displaying bromodomains were grown in parallel in 24-well blocks in an E. coli host derived from the BL21 strain. E. coli were grown to log-phase and infected with T7 phage from a frozen stock (multiplicity of infection=0.4) and incubated with shaking at 32° C. until lysis (90-150 minutes). The lysates were centrifuged (5,000×g) and filtered (0.2 μm) to remove cell debris. Streptavidin-coated magnetic beads were treated with biotinylated small molecule or acetylated peptide ligands for 30 minutes at room temperature to generate affinity resins for bromodomain assays. The liganded beads were blocked with excess biotin and washed with blocking buffer (SeaBlock (Pierce), 1% BSA, 0.05% Tween 20, 1 mM DTT) to remove unbound ligand and to reduce nonspecific phage binding. Binding reactions were assembled by combining bromodomains, liganded affinity beads, and test compounds in 1× binding buffer (17% SeaBlock, 0.33×PBS, 0.04% Tween 20, 0.02% BSA, 0.004% Sodium azide, 7.4 mM DTT). Test compounds were prepared as 1000× stocks in 100% DMSO. Kds were determined using an 11-point 3-fold compound dilution series with one DMSO control point. All compounds for Kd measurements are distributed by acoustic transfer (non-contact dispensing) in 100% DMSO. The compounds were then diluted directly into the assays such that the final concentration of DMSO was 0.09%. All reactions performed in polypropylene 384-well plates. Each was a final volume of 0.02 ml. The assay plates were incubated at room temperature with shaking for 1 hour and the affinity beads were washed with wash buffer (1×PBS, 0.05% Tween 20). The beads were then resuspended in elution buffer (1×PBS, 0.05% Tween […] non-biotinylated affinity ligand) and incubated at room temperature with shaking for 30 minutes. The bromodomain concentration in the eluates was measured by qPCR.
# [2] = system: T-Rex 293 cell line SC cells lacking increased expression of progesterone receptor isoform B protein; experiment: Cellular growth inhibition, T-Rex 293 SC cells without doxycycline, Example 45; format: cell-based; conditions: T-Rex 293 SC cells not exposed to doxycycline, 72 hours treatment, CellTiter-Glo 2.0
# Procedure: (§1) The following types of cells were prepared for this experiment: (i) a T-Rex 293 cell line having increased expression of progesterone receptor isoform B protein due to exposure to doxycycline and (ii) a T-Rex 293 cell line lacking increased expression of progesterone receptor isoform B protein. Ability of the test compounds to inhibit proliferation of the foregoing cell types was evaluated according to the procedures set forth below.
# (§2) The doxycycline-inducible progesterone receptor isoform B protein expressing cell line was established using the following protocol: T-Rex 293 cells were purchased from Invitrogen (Cat #R71007) and transfected using Lipofectamine 2000 with the wild-type progesterone receptor B protein sequence cloned into the pcDNA4/TO vector. Transfected cells were selected using 400 μg/mL Zeocin (Invitrogen Cat #R25001). Following selection, single clones were raised and maintained in Dulbecco's Modified Eagle Medium (DMEM) supplemented with 10% w/w Tetracycline-free fetal bovine serum (FBS) and 250 μg/mL Zeocin. Clones were analyzed for expression of progesterone receptor isoform B protein in the presence and absence of 10 ng/mL doxycycline (Sigma Cat #D9891), and a single doxycycline-inducible clone (hereinafter “SC”) was selected for use in downstream assays.
# (§3) The SC cells were seeded on poly-D-lysine coated, black clear-bottom 384-well plates at 2500/well, in 25 μL Phenol Red Free Dulbecco's Modified Eagle Medium (DMEM) supplemented with 10% w/w charcoal-dextran treated fetal bovine serum (FBS) and 1% w/w pen-strep, with or without 10 ng/mL doxycycline. Pen-Strep is a commercially available mixture of penicillin G and streptomycin, which is used in mammalian cell culture media to prevent bacterial contamination. Phenol Red Free Dulbecco's Modified Eagle Medium (DMEM) supplemented with 10% w/w charcoal-dextran treated fetal bovine serum (FBS) and 1% w/w pen-strep, with or without 10 ng/mL doxycycline is herein referred to as Treatment Medium. Following seeding of cells in the plates, the plates were spun at 300×g for 30 seconds, then equilibrated to room temperature for 30 minutes, and then deposited in a humidified tissue culture incubator maintained at 37° C. with 5% CO2.
# (§4) At 24 hours after seeding of the cells, dilutions of test compound were prepared in DMSO and dissolved in Treatment Medium, to achieve a final DMSO concentration of 0.5% w/w, thereby providing the Test Compound Solution. A 25 μL aliquot of the Test Compound Solution was added to cells in the well plates. An equal volume of a solution containing DMSO and Treatment Medium was used as a negative control. Following treatment of cells with Test Compound Solution or said equal volume of a solution containing DMSO and Treatment Medium, the plates were spun at 300×g for 30 seconds, and then left in an incubator for 72 hours.
# (§5) At the end of the treatment duration, cell viability was quantified with CellTiter-Glo 2.0 reagent (Promega Cat #G9243). For this purpose, plates were equilibrated to room temperature for 30 minutes, and then 25 μL of CellTiter-Glo 2.0 reagent was added to cells in the plate wells. Plates were then agitated on a shaker for two minutes at 500 rpm and subsequently incubated at room temperature for 10 minutes. Following incubation, the plates were spun at 3000×g for 30 seconds, then sealed with an optical adhesive cover, and luminescence readings were measured with an EnVision Plate Reader (Perkin Elmer).
# (§6) Data was normalized using zero luminescence for baseline. A four-parameter non-linear regression curve fit was applied to dose-response data in GraphPad Prism data analysis software to determine the half-maximal growth inhibitory concentration (GI50) for each test compound.
# [3] = Cellular growth inhibition, T-Rex 293 SC cells with doxycycline (progesterone receptor isoform B induced), Example 45; format: cell-based; conditions: progesterone receptor isoform B induced with 10 ng/mL doxycycline, 72 hours, CellTiter-Glo 2.0, Table 11
# Procedure: as §1, §2, §3, §4, §5, §6
Structure (SMILES),Kd [1],GI50 [2],GI50 [3]
Cc1sc2c(c1C)C(c1ccc(Cl)cc1)=N[C@@H](CC(=O)NCCOC1CCN(c3ncc(C(=O)N[C@H]4C(C)(C)[C@H](Oc5ccc(C#N)c(Cl)c5)C4(C)C)cn3)CC1)c1nnc(C)n1-2 [Compound I-6],> 2500 nM,< 500 nM,< 500 nM
Cc1sc2c(c1C)C(c1ccc(Cl)cc1)=N[C@@H](CC(=O)NCCOCCOCCOCCOCCOC1CCN(c3ncc(C(=O)N[C@H]4C(C)(C)[C@H](Oc5ccc(C#N)c(Cl)c5)C4(C)C)cn3)CC1)c1nnc(C)n1-2 [Compound I-8],500 to 2500 nM,500 to 1500 nM,< 500 nM
Cc1sc2c(c1C)C(c1ccc(Cl)cc1)=N[C@@H](CC(=O)NCCOCCOCCOC1CCN(c3ncc(C(=O)N[C@H]4C(C)(C)[C@H](Oc5ccc(C#N)c(Cl)c5)C4(C)C)cn3)CC1)c1nnc(C)n1-2 [Compound I-7],500 to 2500 nM,< 500 nM,< 500 nM
Cc1sc2c(c1C)C(c1ccc(Cl)cc1)=N[C@@H](CC(=O)NCCCN1CCN(CCCOC3CCN(c4ncc(C(=O)N[C@H]5C(C)(C)[C@H](Oc6ccc(C#N)c(Cl)c6)C5(C)C)cn4)CC3)CC1)c1nnc(C)n1-2 [Compound I-10],50 to 500 nM,,
"Cc1sc2c(c1C)C(c1ccc(Cl)cc1)=N[C@@H](CC(=O)NCCCN1CCN(CC3CCN(c4ncc(C(=O)N[C@H]5C(C)(C)[C@H](Oc6ccc(C#N)c(Cl)c6)C5(C)C)cn4)CC3)CC1)c1nnc(C)n1-2 [Compound I-36, N-((1r,3r)-3-(3-chloro-4-cyanophenoxy)-2,2,4,4-tetramethylcyclobutyl)-2-(4-((4-(3-(2-((S)-4-(4-chlorophenyl)-2,3,9-trimethyl-6H-thieno[3,2-f][1,2,4]triazolo[4,3-a][1,4]diazepin-6-yl)acetamido)propyl)piperazin-1-yl)methyl)piperidin-1-yl)pyrimidine-5-carboxamide]",50 to 500 nM,,
"Cc1sc2c(c1C)C(c1ccc(Cl)cc1)=N[C@@H](CC(=O)NCCN(C)c1ncc(C(=O)N[C@H]3C(C)(C)[C@H](Oc4ccc(C#N)c(Cl)c4)C3(C)C)cn1)c1nnc(C)n1-2 [Compound I-1, N-[3-(3-chloro-4-cyano-phenoxy)-2,2,4,4-tetramethyl-cyclobutyl]-2-[2-[[2-[(9S)-7-(4-chlorophenyl)-4,5,13-trimethyl-3-thia-1,8,11,12-tetrazatricyclo[8.3.0.02,6]trideca-2(6),4,7,10,12-pentaen-9-yl]acetyl]amino]ethyl-methyl-amino]pyrimidine-5-carboxamide]",50 to 500 nM,,
CCNC(=O)C[C@@H]1N=C(c2ccc(OCCOC3CCN(c4ncc(C(=O)N[C@H]5C(C)(C)[C@H](Oc6ccc(C#N)c(Cl)c6)C5(C)C)cn4)CC3)c(F)c2F)c2c(sc(C)c2C)-n2c(C)nnc21 [Compound I-73],500 to 2500 nM,,
Cc1sc2c(c1C)C(c1ccc(Cl)cc1)=N[C@@H](CC(=O)NCCOCCOCCOCC1CN(c3ncc(C(=O)N[C@H]4C(C)(C)[C@H](Oc5ccc(C#N)c(Cl)c5)C4(C)C)cn3)C1)c1nnc(C)n1-2 [Compound I-18],50 to 500 nM,,
Cc1sc2c(c1C)C(c1ccc(Cl)cc1)=N[C@H](CC(=O)NCCOCCOCCOCCOC1CCN(c3ncc(C(=O)N[C@H]4C(C)(C)[C@H](Oc5ccc(C#N)c(Cl)c5)C4(C)C)cn3)CC1)c1nnc(C)n1-2 [Compound I-13],> 2500 nM,,
Cc1sc2c(c1C)C(c1ccc(Cl)cc1)=N[C@@H](CC(=O)NCCCCCCCOC1CCN(c3ncc(C(=O)N[C@H]4C(C)(C)[C@H](Oc5ccc(C#N)c(Cl)c5)C4(C)C)cn3)CC1)c1nnc(C)n1-2 [Compound I-24],> 2500 nM,,
CCN(C)C(=O)C[C@@H]1N=C(c2ccc(OCCOC3CCN(c4ncc(C(=O)N[C@H]5C(C)(C)[C@H](Oc6ccc(C#N)c(Cl)c6)C5(C)C)cn4)CC3)cc2)c2c(sc(C)c2C)-n2c(C)nnc21 [Compound I-66],500 to 2500 nM,,
CCNC(=O)C[C@@H]1N=C(c2ccc(OCC3CN(c4ncc(C(=O)N[C@H]5C(C)(C)[C@H](Oc6ccc(C#N)c(Cl)c6)C5(C)C)cn4)C3)cc2)c2c(sc(C)c2C)-n2c(C)nnc21 [Compound I-71],50 to 500 nM,,
Cc1sc2c(c1C)C(c1ccc(Cl)cc1)=N[C@@H](CC(=O)NCCOCCOCCOCC1CCN(c3ncc(C(=O)N[C@H]4C(C)(C)[C@H](Oc5ccc(C#N)c(Cl)c5)C4(C)C)cn3)CC1)c1nnc(C)n1-2 [Compound I-17],50 to 500 nM,,
Cc1sc2c(c1C)C(c1ccc(Cl)cc1)=N[C@@H](CC(=O)NCCCCOCCOC1CCN(c3ncc(C(=O)N[C@H]4C(C)(C)[C@H](Oc5ccc(C#N)c(Cl)c5)C4(C)C)cn3)CC1)c1nnc(C)n1-2 [Compound I-28],500 to 2500 nM,,

# Now from value to compound, other results behind:
Kd [1],Structure (SMILES),GI50 [2],GI50 [3]
< 50 nM,CCNC(=O)C[C@@H]1N=C(c2ccc(N3CCC(N(C)C4CCN(c5ncc(C(=O)N[C@H]6C(C)(C)[C@H](Oc7ccc(C#N)c(Cl)c7)C6(C)C)cn5)CC4)CC3)cc2)c2c(sc(C)c2C)-n2c(C)nnc21 [Compound I-113],,
50 to 500 nM,CCNC(=O)C[C@@H]1N=C(c2ccc(N(C)C3CN(CC4CCN(c5ncc(C(=O)N[C@H]6C(C)(C)[C@H](Oc7ccc(C#N)c(Cl)c7)C6(C)C)cn5)CC4)C3)cc2)c2c(sc(C)c2C)-n2c(C)nnc21 [Compound I-119],,
50 to 500 nM,CCNC(=O)C[C@@H]1N=C(c2ccc(N(C)CCN3CCN(c4ncc(C(=O)N[C@H]5C(C)(C)[C@H](Oc6ccc(C#N)c(Cl)c6)C5(C)C)cn4)CC3)cc2)c2c(sc(C)c2C)-n2c(C)nnc21 [Compound I-108],,
500 to 2500 nM,CCNC(=O)C[C@@H]1N=C(c2ccc(OCCOC3CCN(c4ncc(C(=O)N[C@H]5C(C)(C)[C@H](Oc6ccc(C#N)c(Cl)c6)C5(C)C)cn4)CC3)cc2F)c2c(sc(C)c2C)-n2c(C)nnc21 [Compound I-75],,
> 2500 nM,Cc1sc2c(c1C)C(c1ccc(CCCOC3CCN(c4ncc(C(=O)N[C@H]5C(C)(C)[C@H](Oc6ccc(C#N)c(Cl)c6)C5(C)C)cn4)CC3)cc1)=N[C@@H](CC(=O)NC(C)C)c1nnc(C)n1-2 [Compound I-100],,
> 2500 nM,CCN(C)C(=O)C[C@@H]1N=C(c2ccc(CCCOC3CCN(c4ncc(C(=O)N[C@H]5C(C)(C)[C@H](Oc6ccc(C#N)c(Cl)c6)C5(C)C)cn4)CC3)cc2)c2c(sc(C)c2C)-n2c(C)nnc21 [Compound I-101],,
